Data as given in US8969362B2 (priority 2004, dated 2015).

Columns and labels:
rat spleen cells = assay: cells; format: cell-based; conditions: 24 h, read-out: Minimum effective concentration (interferon inducing activity)
[1] = Metabolic stability test on rat liver S9; format: in vitro ADME; conditions: rat liver S9 with NADPH, 1 μM test compound, 37° C.; residual rate after reaction
Method: The reaction using liver S9 of rat was conducted on a 96-well plate by using a screening robot by Tecan Company. S9 solution was prepared by adding 250 mM Kpi (ph 7.4) 20 ml and deionized water 20 ml to 10 ml of liver S9 of rat, a Cofactor solution was prepared by dissolving NADPH 220 mg in deionized water 40.5 ml (Final 6 mM), and IS (Internal Standard) solution was prepared by adding IS solution (1 mM DMSO solution) 300 μl to acetonitrile 30 ml (100 times dilution). The test compound (1 μM DMSO solution) was dissolved in an incubator at 37° C. After each 35 μL was poured in a 96-well plate (24 samples/plate), plates (sample plates, 96-well plates for dilution, each Deep well plates for the reaction and the recovery, plates for extraction of a solid phase) and reagents (S9 solution, Cofactor solution, IS (Internal Standard) solution, Stop solution, acetonitrile for elution) were set to the specified position in the booth of the robot and the reaction started (the concentration of the test compounds was 1 μM). Incubation was conducted under shaking at 37° C., the solid phase was extracted (at the same time, the internal standard for analysis was added). To the recovered samples 200 μL/well was added 50 μL of acetonitrile per each well, and to 2 plates of FALCON Deep well were poured 100 μL/well of the solution per well. By subjecting to the LC/MS analysis, the chromatography of the test compound and the internal standard were described and the peak area was calculated. And then, the stability (residual rate after reaction) was calculated.

[2] = Metabolic stability test using human plasma; format: in vitro ADME; conditions: 1 μM test compound, 37° C., 15 minutes, pre-metabolization concentration as 100%
Method: Plasma was prepared from fresh human blood and the test compound (containing 1% DMSO) of the final concentration of 1 μM was added thereto.
After a metabolic reaction by plasma esterase was conducted at 37° C. for 15 minutes, the test compound was extracted with ethyl acetate, and quantitatively analyzed by reverse phase HPLC. The metabolic stability of the test compound was shown by the residual amount (%) per the concentration of pre-metabolization as 100%.

Row | Structure (SMILES) | minimal effective concentration (rat spleen cells) [µM] | Residual rate [1] [%] | Residual rate [2] [%]
1 | CCCCOc1nc(N)c2[nH]c(=O)n(CCOc3cccc(C(=O)OC)c3)c2n1 [Example 1, 2-butoxy-8-oxo-9-[2-(3-methoxycarbonylphenoxy)ethyl]adenine] | 0.0003 | 0 | –
2 | CCCCOc1nc(N)c2[nH]c(=O)n(CCOc3cccc(CC(=O)OC)c3)c2n1 [Example 2, 2-butoxy-8-oxo-9-[2-(3-methoxycarbonylmethylphenoxy)ethyl]adenine] | 0.003 | 1 | 1.4
3 | CCCCOc1nc(N)c2[nH]c(=O)n(CCOc3ccccc3C(=O)OC)c2n1 [Example 3, 2-butoxy-8-oxo-9-[2-(2-methoxycarbonylphenoxy)ethyl]adenine] | 0.001 | 0 | –
4 | CCCCOc1nc(N)c2[nH]c(=O)n(CCOc3ccccc3CC(=O)OC)c2n1 [Example 4, 2-butoxy-8-oxo-9-[2-(2-methoxycarbonylmethylphenoxy)ethyl]adenine] | 0.001 | 0 | –
5 | CCCCOc1nc(N)c2[nH]c(=O)n(CCOc3ccc(C(=O)OC)cc3)c2n1 [Example 5, 2-butoxy-8-oxo-9-[2-(4-methoxycarbonylphenoxy)ethyl]adenine] | – | 0 | –
6 | CCCCOc1nc(N)c2[nH]c(=O)n(CCOc3ccc(CC(=O)OC)cc3)c2n1 [Example 6, 2-butoxy-8-oxo-9-[2-(4-methoxycarbonylmethylphenoxy)ethyl]adenine] | 0.01 | 0 | –
7 | CCCCOc1nc(N)c2[nH]c(=O)n(CCOc3ccc(CCC(=O)OC)cc3)c2n1 [Example 7, 2-butoxy-8-oxo-9-{2-[4-(2-methoxycarbonylethyl)phenoxy]ethyl}adenine] | – | 0 | –
8 | CCCCOc1nc(N)c2[nH]c(=O)n(CCCCNS(=O)(=O)c3cccc(C(=O)OC)c3)c2n1 [Example 8, 2-butoxy-8-oxo-9-[4-(3-methoxycarbonylbenzenesulfonamide)butyl]adenine] | 0.003 | 0 | –
9 | CCCCOc1nc(N)c2[nH]c(=O)n(CCCCNS(=O)(=O)c3cccc(CC(=O)OC)c3)c2n1 [Example 9, 2-butoxy-8-oxo-9-[4-(3-methoxycarbonylmethylbenzenesulfonamide)butyl]adenine] | 0.003 | 0 | <1.0
10 | CCCCOc1nc(N)c2[nH]c(=O)n(CCCCNC(=O)Nc3cccc(C(=O)OC)c3)c2n1 [Example 10, 2-butoxy-8-oxo-9-[4-(3-methoxycarbonylphenylaminocarbonylamino)butyl]adenine] | 0.001 | 1 | –
